SMILES strings stand for the structures.

One experiment concerns the target T1, rat NaPi-2b (Rattus norvegicus, UniProt Q9JJ09).
T1 construct: expressed in transfected cells; host or cells: Xenopus oocytes injected with cRNA
T1 sequence (Q9JJ09 1-695): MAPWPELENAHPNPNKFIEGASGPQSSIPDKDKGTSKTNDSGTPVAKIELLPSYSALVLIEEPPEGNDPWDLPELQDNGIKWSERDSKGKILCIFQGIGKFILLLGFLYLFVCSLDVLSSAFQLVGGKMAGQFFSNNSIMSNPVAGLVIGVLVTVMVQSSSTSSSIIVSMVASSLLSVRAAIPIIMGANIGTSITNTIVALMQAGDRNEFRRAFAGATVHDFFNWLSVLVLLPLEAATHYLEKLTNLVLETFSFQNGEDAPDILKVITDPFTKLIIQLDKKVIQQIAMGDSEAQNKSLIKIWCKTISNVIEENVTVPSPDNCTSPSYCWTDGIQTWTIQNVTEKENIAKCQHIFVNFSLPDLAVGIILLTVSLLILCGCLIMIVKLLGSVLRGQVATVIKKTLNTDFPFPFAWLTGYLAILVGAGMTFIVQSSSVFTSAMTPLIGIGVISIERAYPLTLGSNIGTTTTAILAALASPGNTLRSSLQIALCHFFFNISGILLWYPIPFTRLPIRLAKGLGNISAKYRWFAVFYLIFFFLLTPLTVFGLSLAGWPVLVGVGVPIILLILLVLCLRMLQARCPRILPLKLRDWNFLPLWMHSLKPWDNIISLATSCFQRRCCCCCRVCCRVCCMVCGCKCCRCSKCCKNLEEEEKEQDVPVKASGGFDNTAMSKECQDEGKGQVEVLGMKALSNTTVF
In words: Sodium-dependent phosphate uptake of Xenopus oocytes which expressed NaPi-2b (32P). The class given is cell-based. The conditions noted are these: Xenopus oocytes expressing rat NaPi-2b, 32P radioactive phosphorus; read-out: IC50 (phosphate uptake inhibitory activity). The method in brief:
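Percent inhibition at 300 μM and 100 μM comes from the same inhibition curve of 32P uptake. Assay used oocytes expressing rat NaPi-2b after 2 days of culture.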
Regarding `O=C(Nc1ccc(Cl)cc1C(=O)N/N=C/c1ccc(O)cc1)c1cccc(CN2CCC(N3CCCCC3)CC2)c1` [Compound 377, 3-[1,4′]Bipiperidinyl-1′-ylmethyl-N-[4-chloro-2-(4-hydroxy-benzylidene-hydrazinocarbonyl)-phenyl]-benzamide], the IC50 turned out to be 9.65 µM.
The same measure, in the same setting: the figure for `Cc1ccc(/C=N/NC(=O)c2c(C)csc2NC(=O)c2cccc(CN3CCC(O)CC3)c2)cc1C` [Compound 593, N-[3-(3,4-Dimethyl-benzylidene-hydrazinocarbonyl)-4-methyl-thiophen-2-yl]-3-(4-hydroxy-piperidin-1-ylmethyl)-benzamide] is < 3 µM; for `Cc1ccc(/C=N/NC(=O)c2c(NC(=O)c3cccc(CN(CC(C)O)CC(C)O)c3)sc3c2CCC3)cc1C` (stereo not shown) [Compound 804, 3-{[Bis-(2-hydroxy-propyl)-amino]-methyl}-N-[3-(3,4-dimethyl-benzylidene-hydrazinocarbonyl)-5,6-dihydro-4H-cyclopenta[b]thiophen-2-yl]-benzamide] it is 1.23 µM; for `O=C(Nc1ccc(I)cc1C(=O)N/N=C/c1cccc(F)c1)c1cccc(CN2CCC(N3CCCCC3)CC2)c1` [Compound 482, 3-[1,4′]Bipiperidinyl-1′-ylmethyl-N-[2-(3-fluoro-benzylidene-hydrazinocarbonyl)-4-iodo-phenyl]-benzamide] it is < 3 µM.
As to `Cc1ccc(/C=N/NC(=O)c2c(C)csc2NC(=O)c2cccc(CN3CCC(N4CCCCC4)CC3)c2)cc1C` [Compound 569, 3-[1,4′]Bipiperidinyl-1′-ylmethyl-N-[3-(3,4-dimethyl-benzylidene-hydrazinocarbonyl)-4-methyl-thiophen-2-yl]-benzamide], the IC50 is < 3 µM.
Same read-out and setting: the figure for `COc1ccc(C(=O)Nc2ccccc2C(=O)N/N=C/c2cccc(C#N)c2)cc1OC` [Compound 9, N-[2-(3-Cyano-benzylidene-hydrazinocarbonyl)-phenyl]-3,4-dimethoxy-benzamide] is 4.26 µM.
Still for that read-out and setting: the figure for `O=C(Nc1ccc(Br)cc1C(=O)N/N=C/c1cccc(F)c1)c1ccc(CNCCN2CCOCC2)cc1` [Compound 713, N-[4-Bromo-2-(3-fluoro-benzylidene-hydrazinocarbonyl)-phenyl]-4-[(2-morpholin-4-yl-ethylamino)-methyl]-benzamide] is 15.5 µM.
Turning to `Cc1ccc(/C=N/NC(=O)c2cc(F)ccc2NC(=O)c2cc(F)ccc2NC(=O)c2cccc(CN(CC(C)O)CC(C)O)c2)cc1C` (stereo not shown) [Compound 986, 2-(3-{[Bis-(2-hydroxy-propyl)-amino]-methyl}-benzoylamino)-N-[2-(3,4-dimethyl-benzylidene-hydrazinocarbonyl)-4-fluoro-phenyl]-5-fluoro-benzamide], the IC50 amounted to 29 µM.
With `O=C(Nc1ccccc1C(=O)N/N=C/c1ccccc1)c1ccccc1F` [Compound 27, N-[2-(Benzylidene-hydrazinocarbonyl)-phenyl]-2-fluoro-benzamide], the IC50 was determined as 3.63 µM.
Turning to `COc1ccc(/C=N/NC(=O)c2cc(Br)ccc2NC(=O)c2ccc(CN3CCC(O)CC3)cc2)cc1` [Compound 330, N-[4-Bromo-2-(4-methoxy-benzylidene-hydrazinocarbonyl)-phenyl]-4-(4-hydroxy-piperidin-1-ylmethyl)-benzamide], the IC50 is 10.7 µM.
Still for that read-out and setting: the figure for `Cc1ccc(/C=N/NC(=O)c2cc(Br)ccc2NC(=O)c2ccncc2)cc1` [Compound 169, N-[4-Bromo-2-(4-methyl-benzylidene-hydrazinocarbonyl)-phenyl]-isonicotinamide] is 4.24 µM; for `O=C(Nc1ccc(Cl)cc1C(=O)N/N=C/c1ccc(F)cc1)c1cccc(CN2CCC(N3CCCCC3)CC2)c1` [Compound 369, 3-[1,4′]Bipiperidinyl-1′-ylmethyl-N-[4-chloro-2-(4-fluoro-benzylidene-hydrazinocarbonyl)-phenyl]-benzamide] it is 1.45 µM; for `CC(O)CN(Cc1cccc(C(=O)Nc2ccc(OCC(O)CN3CCCCC3)cc2C(=O)N/N=C/c2ccc(Cl)c(C(F)(F)F)c2)c1)CC(C)O` (stereo not shown) [Compound 950, 3-{[Bis-(2-hydroxy-propyl)-amino]-methyl}-N-[2-(4-chloro-3-trifluoromethyl-benzylidene-hydrazinocarbonyl)-4-(2-hydroxy-3-piperidin-1-yl-propoxy)-phenyl]-benzamide] it is 9.08 µM.
Consider `COc1ccc(C(=O)Nc2scc(C)c2C(=O)N/N=C/c2cccc(C)c2)cc1OC` [Compound 518, 3,4-Dimethoxy-N-[4-methyl-3-(3-methyl-benzylidene-hydrazinocarbonyl)-thiophen-2-yl]-benzamide], for which the IC50 came out at 1.52 µM.
Still for that read-out and setting: the figure for `O=C(Nc1ccccc1C(=O)N/N=C/c1ccc(F)cc1)c1ccccc1F` [Compound 38, 2-Fluoro-N-[2-(4-fluoro-benzylidene-hydrazinocarbonyl)-phenyl]-benzamide] is 5.64 µM; for `Cc1cc(C(=O)Nc2ccccc2C(=O)N/N=C/c2ccc(F)cc2)c(C)o1` [Compound 515, 2,5-Dimethyl-furan-3-carboxylic acid [2-(4-fluoro-benzylidene-hydrazinocarbonyl)-phenyl]-amide] it is 1.9 µM.
As for `Cc1cc(/C=N/NC(=O)c2cc(Br)ccc2NC(=O)c2ccncc2)oc1C` [Compound 221, N-[4-Bromo-2-(4,5-dimethyl-furan-2-ylmethylene-hydrazinocarbonyl)-phenyl]-isonicotinamide], the IC50 is 9.51 µM.
In the case of `Cc1sc(NC(=O)c2cccc(CN(CC(C)O)CC(C)O)c2)c(C(=O)N/N=C/c2ccc(Cl)c(C(F)(F)F)c2)c1C` (stereo not shown) [Compound 847, 3-{[Bis-(2-hydroxy-propyl)-amino]-methyl}-N-[3-(4-chloro-3-trifluoromethyl-benzylidene-hydrazinocarbonyl)-4,5-dimethyl-thiophen-2-yl]-benzamide], the 50% inhibitory concentration (IC50) was < 3 µM.
Consider `Cc1ccc(/C=N/NC(=O)c2ccccc2NC(=O)c2cccc(F)c2)cc1` [Compound 84, 3-Fluoro-N-[2-(4-methyl-benzylidene-hydrazinocarbonyl)-phenyl]-benzamide], for which the IC50 worked out at 8.42 µM.
For the compound `Cc1ccc(/C=N/NC(=O)c2ccccc2NC(=O)c2cccnc2)cc1` [Compound 132, N-[2-(4-Methyl-benzylidene-hydrazinocarbonyl)-phenyl]-nicotinamide], the half-inhibitory concentration (IC50) is 0.75 µM.
`COc1ccc(C(=O)Nc2ccccc2C(=O)N/N=C/c2ccc(O)c(C)c2)cc1OC` [Compound 42, N-[2-(4-Hydroxy-3-methyl-benzylidene-hydrazinocarbonyl)-phenyl]-3,4-dimethoxy-benzamide]: the 50% inhibitory concentration (IC50) was found to be 8.21 µM.
Still for that read-out and setting: the figure for `O=C(Nc1ccc(Br)cc1C(=O)N/N=C/c1cccc(F)c1)c1ccc(CN2CCC(N3CCCCC3)CC2)cc1` [Compound 312, 4-[1,4′]Bipiperidinyl-1′-ylmethyl-N-[4-bromo-2-(3-fluoro-benzylidene-hydrazinocarbonyl)-phenyl]-benzamide] is 3.31 µM; for `CCN(CC)CCNCc1ccc(C(=O)Nc2ccc(Br)cc2C(=O)N/N=C/c2ccc(Cl)c(C(F)(F)F)c2)cc1` [Compound 297, N-[4-Bromo-2-(4-chloro-3-trifluoromethyl-benzylidene-hydrazinocarbonyl)-phenyl]-4-[(2-diethylamino-ethylamino)-methyl]-benzamide] it is 0.96 µM; for `Cc1csc(NC(=O)c2cccc(CN(CC(C)O)CC(C)O)c2)c1C(=O)N/N=C/c1cccc(F)c1` (stereo not shown) [Compound 590, 3-{[Bis-(2-hydroxy-propyl)-amino]-methyl}-N-[3-(3-fluoro-benzylidene-hydrazinocarbonyl)-4-methyl-thiophen-2-yl]-benzamide] it is 6.18 µM.
As to `O=C(Nc1ccc(Br)cc1C(=O)N/N=C/c1cccc(O)c1)c1ccc(F)cc1` [Compound 109, N-[4-Bromo-2-(3-hydroxy-benzylidene-hydrazinocarbonyl)-phenyl]-4-fluoro-benzamide], the half-inhibitory concentration (IC50) turned out to be 6.18 µM.

The same experiment, now with this note: phosphate uptake, oocytes expressing rat NaPi-2b; 300 μM, determined from inhibition curve.
On to `Cc1ccc(/C=N/NC(=O)c2cc(Br)ccc2NC(=O)c2ccc(CN3CCN(c4ccc(F)cc4)CC3)cc2)cc1C` [Compound 717, N-[4-Bromo-2-(3,4-dimethyl-benzylidene-hydrazinocarbonyl)-phenyl]-4-[4-(4-fluoro-phenyl)-piperazin-1-ylmethyl]-benzamide], for which the inhibition at 300 µM came to 53.5%.
Take `COc1ccc(/C=N/NC(=O)c2cc(Br)ccc2NC(=O)c2ccc(CN3CCN(c4ccccn4)CC3)cc2)cc1` [Compound 777, N-[4-Bromo-2-(4-methoxy-benzylidene-hydrazinocarbonyl)-phenyl]-4-(4-pyridin-2-yl-piperazin-1-ylmethyl)-benzamide]: the inhibition at 300 µM was found to be 34.2%.
In turn, `CCN(CC)CCNCc1cccc(C(=O)Nc2c(C)csc2C(=O)N/N=C/c2ccc(C)cc2)c1` [Compound 537, 3-[(2-Diethylamino-ethylamino)-methyl]-N-[4-methyl-2-(4-methyl-benzylidene-hydrazinocarbonyl)-thiophen-3-yl]-benzamide] returned an inhibition at 300 µM of 82%.

The term IC50 denotes the point on the concentration scale where inhibition reaches its midpoint. Broadly, the inhibition is the relative decrease from the control value, in per cent.

(Values after US8134015B2, “Compound inhibiting in vivo phosphorous transport and medicine containing the same” (Kyowa Hakko Kirin Co., Ltd., priority 2003, dated 2012).)
